Assay results published in patent US20150175599A1, “FAAH Inhibitors” (Ironwood Pharmaceuticals, Inc., priority 2010, published 2015).

What was measured:
hERG channel = molecular target: T1, hERG channel (Homo sapiens, UniProt Q12809); assay: hERG channel inhibition, automated patch clamp (IonWorks HT, hERG-CHO); assay type: cell-based; conditions: CHO cells expressing hERG, 600 s incubation; for inhibition at 600 s, 1 µM: 1 μM compound, read-out: hERG Channel Inhibition % (at 1 μM), vehicle-subtracted values; for inhibition at 600 s, 10 µM: 10 μM compound, read-out: hERG Channel Inhibition % (at 10 μM), vehicle-subtracted values
T1 construct: expressed in transfected cells; host or cells: CHO (hERG-CHO), under Geneticin selection
T1 sequence (Q12809 whole entry): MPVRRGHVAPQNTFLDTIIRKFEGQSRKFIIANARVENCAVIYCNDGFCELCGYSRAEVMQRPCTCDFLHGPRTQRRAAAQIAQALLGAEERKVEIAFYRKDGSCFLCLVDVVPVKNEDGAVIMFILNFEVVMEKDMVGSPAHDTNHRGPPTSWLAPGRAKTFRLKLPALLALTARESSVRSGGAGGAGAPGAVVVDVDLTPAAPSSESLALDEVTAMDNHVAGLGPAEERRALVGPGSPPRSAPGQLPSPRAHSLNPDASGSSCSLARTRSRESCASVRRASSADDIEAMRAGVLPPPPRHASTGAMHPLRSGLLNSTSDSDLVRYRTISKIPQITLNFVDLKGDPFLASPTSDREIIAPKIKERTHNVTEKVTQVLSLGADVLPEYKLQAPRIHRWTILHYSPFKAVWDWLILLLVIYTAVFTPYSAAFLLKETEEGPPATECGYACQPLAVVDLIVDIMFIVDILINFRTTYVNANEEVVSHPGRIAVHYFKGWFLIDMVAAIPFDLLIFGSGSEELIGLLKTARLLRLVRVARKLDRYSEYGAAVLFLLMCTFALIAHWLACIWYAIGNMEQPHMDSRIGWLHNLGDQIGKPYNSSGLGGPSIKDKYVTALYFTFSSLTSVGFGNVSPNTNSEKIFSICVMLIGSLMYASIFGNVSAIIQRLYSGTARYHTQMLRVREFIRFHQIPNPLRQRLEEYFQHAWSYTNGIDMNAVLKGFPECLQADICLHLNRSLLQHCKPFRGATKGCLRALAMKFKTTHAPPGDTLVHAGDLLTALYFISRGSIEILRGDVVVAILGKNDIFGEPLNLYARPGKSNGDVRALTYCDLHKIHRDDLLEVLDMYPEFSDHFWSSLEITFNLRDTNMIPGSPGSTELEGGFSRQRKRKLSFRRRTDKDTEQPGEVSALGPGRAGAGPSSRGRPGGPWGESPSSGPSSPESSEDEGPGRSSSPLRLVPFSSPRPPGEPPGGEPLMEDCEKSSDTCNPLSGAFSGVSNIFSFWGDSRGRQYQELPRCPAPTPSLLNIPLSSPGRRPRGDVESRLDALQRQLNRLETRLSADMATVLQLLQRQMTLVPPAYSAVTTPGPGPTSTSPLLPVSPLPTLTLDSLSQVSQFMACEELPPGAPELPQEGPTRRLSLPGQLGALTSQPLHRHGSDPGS
Procedure: Human ether-a-gogo-related (hERG) ion channel encodes the inward rectifying voltage gated potassium channel in the heart and has a major role during the repolarization of the cardiac action potential. It is well established that blockade of this ion channel can lead to potentially lethal arrhythmias. hERG pre-clinical safety data is often used by regulatory agencies in elucidate the toxicity profile of certain compositions. The disclosed compounds of Table 1 were tested for their ability to inhibit hERG ion channels.
Media components include F12 Nutrient Mixture (Ham) with GlutaMAX™ (Invitrogen, Cat#31765), Fetal Bovine Serum, Certified (Invitrogen, Cat#16000-044—not heat activated), and Geneticin® Selective Antibiotic (Invitrogen, Cat#10131-027).
One vial of frozen cells, at 1.62×10^6 cells are thawed into a T150 flask (BD Falcon 355001) with 40 mL of pre-warmed complete media. Cells are cultured at 37° C., 5% CO2 for four hours prior to gently changing media. 99% of cells appear attached at this time point.
The flask is media changed at 24 hours post-thaw, the cells are imaged, media changed, and returned to the incubator. At this point, the cells appear healthy and about 25% confluent in the flask. Cells are typically passed 24-48 hours after thaw according to the following intervals and densities below. Cells are incubated at 30° C. for 48 hours prior to assay.
Using an automated patch clamp apparatus (IonWorks^HT), a three pulse protocol was applied by stepping from a holding potential of −80 mV to […] for 2 s, to activate hERG channels. The membrane voltage was then stepped back to −50 mV for 2 s to evoke a tail current prior to returning to the holding potential for 1 s. This sequence was repeated a further two times. This voltage protocol was applied prior to drug (Pre compound) and after 600 s in the presence of drug (Post compound).
The amplitude of the hERG tail current was calculated by measuring the difference between the maximum current on stepping to −50 mV of the third pulse (i.e. peak of the outward hERG tail current) and the current measured immediately prior to activation of any hERG current. This parameter was assessed before (pre tail current amplitude) and after 600 s incubation (post tail current amplitude) in drug. In order to assess the amount of block produced by test compounds, the data was first filtered using the IonWorks™ software to exclude any cells where the seal resistance was less than 50 MOhm. The remaining data was then exported to an excel compatible data file and only currents with tail currents greater than 250 pA were analyzed. The post/pre tail current amplitude ratio for the third pulse was calculated for each drug and control, and presented as percent inhibition.

FAAH = molecular target: T2, FAAH (Homo sapiens, UniProt O00519); assay: FAAH inhibition, human brain membrane homogenate assay; assay type: biochemical; conditions: human brain homogenate; average activity; read-out: Human brain Extract FAAH IC50
T2 construct: Reactions were initiated by adding 12.5 μg of brain microsome; tissue ABS, Inc; host or cells: human brain cerebral cortex, membrane/microsome fraction pooled from 3 donors
T2 sequence (O00519 1-579): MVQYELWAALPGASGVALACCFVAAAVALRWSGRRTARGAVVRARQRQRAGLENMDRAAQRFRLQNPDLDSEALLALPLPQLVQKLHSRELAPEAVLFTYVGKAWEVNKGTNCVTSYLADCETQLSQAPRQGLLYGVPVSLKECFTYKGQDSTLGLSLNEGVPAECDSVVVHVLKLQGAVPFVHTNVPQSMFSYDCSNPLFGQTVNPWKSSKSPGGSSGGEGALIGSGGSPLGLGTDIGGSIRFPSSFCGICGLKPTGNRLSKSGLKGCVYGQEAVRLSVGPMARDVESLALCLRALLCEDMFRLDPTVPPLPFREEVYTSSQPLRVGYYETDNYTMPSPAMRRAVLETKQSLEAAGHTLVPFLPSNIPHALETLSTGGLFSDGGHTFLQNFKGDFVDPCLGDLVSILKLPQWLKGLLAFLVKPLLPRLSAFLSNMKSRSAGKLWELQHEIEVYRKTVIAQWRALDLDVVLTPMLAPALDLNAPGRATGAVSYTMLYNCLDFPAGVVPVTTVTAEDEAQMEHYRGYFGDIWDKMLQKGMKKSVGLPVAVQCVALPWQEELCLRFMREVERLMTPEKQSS

[1] = Pharmacokinetic study, plasma level 2 hours after oral dosing in rats; assay type: in vivo
Procedure: Pharmacokinetic studies were conducted to determine absorption and distribution profiles of the disclosed compounds which were orally administered to rats.
Compounds were formulated in a 1% DMA/99% Vitamin E TPGS vehicle. Prepared compounds were dosed via oral gavage (PO). Following the appropriate pretreatment time of 2 hours, rats were anesthetized with isoflurane gas. Blood was collected into tubes containing EDTA via retro-orbital eye bleed. Whole blood was spun in a micro-centrifuge at approximately 13,000 rpm for 5 minutes at room temperature. Separated plasma was subsequently aliquoted into eppendorf tubes. Samples were stored at −80° C. until prepped for analysis.
Plasma samples were thawed and the required amount of plasma for standards, blanks and dilutions were made. The dilutions were prepared before plating. Preparation of crash solution included cold acetonitrile+0.1% formic acid and 25 ng/mL of a FAAH inhibitor used as internal standard. solvent standards of the FAAH inhibitor being studied were preparation at 10, 30, 100, 300, 1000, 3000, 10000, 30000, 100000, and 300000 ng/mL in DMSO. Then a plasma standard curve was generated from the solvent standards (final concentrations of standards in plasma were: 0.1, 0.3, 1, 3, 10, 30, 100, 300, 1000, 3000 ng/mL). 50 μL of each plasma sample/dilution, standard, or blank was transferred into 96-well plates. To each well, 200 μL of cold crash solution was added. The plate was covered and gently vortexed. The plate was centrifuged at 3500 rpm, 4° C. for 10 min. 200 μL of each supernatant was transferred into new plates. The plates were dried under nitrogen in a TurboVap at 55° C. The sample in each well was re-suspended with 100 μL of 30% acetonitrile, covered and vortexed gently. The well solutions were analyzed by the LC/MS/MS conditions and specifications below.
HPLC column was a Clipeus C8, 2.1×30 mm, 5 μm, with Basic 8 guard column using 20 μL injections. Mobile phase used was mobile phase A: 0.1% Formic Acid in water and mobile phase B: 0.1% Formic Acid in 85:10:5 ACN:IPA:H2O. The flow rate for the run was 0.5 mL/min and the gradient for the 4 minute total run time was: 0.0 minutes

Structure (SMILES) | inhibition at 600 s, 1 µM (hERG channel) | inhibition at 600 s, 10 µM (hERG channel) | IC50 (FAAH) | 2 hr plasma level-ng/mL (rat, 10 mg/kg PO, 2 hr) [1]
COc1cc(NC(=O)C(=O)c2c(C)n(Cc3ccc(Cl)cc3)c3ccc(OC(C)=O)cc23)ccn1 [Compound 1, 1-(4-chlorobenzyl)-3-(2-(2-methoxypyridin-4-ylamino)-2-oxoacetyl)-2-methyl-1H-indol-5-yl acetate] | < 25% | < 25% | < 0.1 µM | A (A = Less than 10 nM)
COc1cc(NC(=O)C(=O)c2c(C)n(Cc3ccc(Cl)cc3)c3ccc(O)cc23)ccn1 [Compound 2, 2-(1-(4-chlorobenzyl)-5-hydroxy-2-methyl-1H-indol-3-yl)-N-(2-methoxypyridin-4-yl)-2-oxoacetamide] | < 25% | < 25% | < 0.1 µM | A (A = Less than 10 nM)
COc1cc(NC(=O)C(=O)c2c(C)n(Cc3ccc(Cl)cc3)c3ccc(C(C)=O)cc23)ccn1 [Compound 5, 2-(5-acetyl-1-(4-chlorobenzyl)-2-methyl-1H-indol-3-yl)-N-(2-methoxypyridin-4-yl)-2-oxoacetamide] | < 25% | 25 to 50% | < 0.1 µM | C (C = between 100 nM and 1000 nM)
COc1cc(NC(=O)C(=O)c2c(C)n(Cc3ccc(Cl)cc3)c3ccc(CO)cc23)ccn1 [Compound 8, 2-(1-(4-chlorobenzyl)-5-(hydroxymethyl)-2-methyl-1H-indol-3-yl)-N-(2-methoxypyridin-4-yl)-2-oxoacetamide] | – | – | < 0.1 µM | C (C = between 100 nM and 1000 nM)
CNc1ccc2c(c1)c(C(=O)C(=O)Nc1ccnc(OC)c1)c(C)n2Cc1ccc(Cl)cc1 [Compound 9, 2-(1-(4-chlorobenzyl)-2-methyl-5-(methylamino)-1H-indol-3-yl)-N-(2-methoxypyridin-4-yl)-2-oxoacetamide] | < 25% | < 25% | < 0.1 µM | C (C = between 100 nM and 1000 nM)
COc1cc(NC(=O)C(=O)c2c(C)n(Cc3ccc(Cl)cc3)c3ccc(COC(C)=O)cc23)ccn1 [Compound 10, (1-(4-chlorobenzyl)-3-(2-(2-methoxypyridin-4-ylamino)-2-oxoacetyl)-2-methyl-1H-indol-5-yl)methyl acetate] | – | – | < 0.1 µM | C (C = between 100 nM and 1000 nM)
COCc1ccc2c(c1)c(C(=O)C(=O)Nc1ccnc(OC)c1)c(C)n2Cc1ccc(Cl)cc1 [Compound 11, 2-(1-(4-chlorobenzyl)-5-(methoxymethyl)-2-methyl-1H-indol-3-yl)-N-(2-methoxypyridin-4-yl)-2-oxoacetamide] | < 25% | 25 to 50% | < 0.1 µM | C (C = between 100 nM and 1000 nM)
COc1ccc2c(c1)c(C(=O)C(=O)Nc1ccnc(OC)c1)c(C)n2Cc1cnc(Cl)cn1 [Compound 12, 2-(1-((5-chloropyrazin-2-yl)methyl)-5-methoxy-2-methyl-1H-indol-3-yl)-N-(2-methoxypyridin-4-yl)-2-oxoacetamide] | < 25% | < 25% | < 0.1 µM | C (C = between 100 nM and 1000 nM)
COc1cc(NC(=O)C(=O)c2c(C)n(Cc3ncc(Cl)cc3Cl)c3cc(F)c(OC)cc23)ccn1 [Compound 13, 2-(1-((3,5-dichloropyridin-2-yl)methyl)-6-fluoro-5-methoxy-2-methyl-1H-indol-3-yl)-N-(2-methoxypyridin-4-yl)-2-oxoacetamide] | < 25% | < 25% | < 0.1 µM | C (C = between 100 nM and 1000 nM)
COc1cnc2c(c1)c(C(=O)C(=O)Nc1ccnc(OC)c1)c(C)n2Cc1ncc(Cl)cc1Cl [Compound 29, 2-(1-((3,5-dichloropyridin-2-yl)methyl)-5-methoxy-2-methyl-1H-pyrrolo[2,3-b]pyridin-3-yl)-N-(2-methoxypyridin-4-yl)-2-oxoacetamide] | – | – | < 0.1 µM | D (D = greater than 1000 nM)
COc1cc(NC(=O)C(=O)c2c(C)n(Cc3ccc(Cl)cn3)c3ccc(N(C)C)cc23)ccn1 [Compound 66, 2-(1-((5-chloropyridin-2-yl)methyl)-5-(dimethylamino)-2-methyl-1H-indol-3-yl)-N-(2-methoxypyridin-4-yl)-2-oxoacetamide] | – | – | < 0.1 µM | D (D = greater than 1000 nM)
COc1cc(NC(=O)C(=O)c2c(C)n(Cc3ccc(Cl)cc3)c3cc(C)c(OC)cc23)ccn1 [Compound 74, 2-(1-(4-chlorobenzyl)-5-methoxy-2,6-dimethyl-1H-indol-3-yl)-N-(2-methoxypyridin-4-yl)-2-oxoacetamide] | – | – | < 0.1 µM | C (C = between 100 nM and 1000 nM)
COc1cc(NC(=O)C(=O)c2c(C)n(Cc3ccc(Cl)cn3)c3ncc(C)cc23)ccn1 [Compound 75, (1-((5-chloropyridin-2-yl)methyl)-2,5-dimethyl-1H-pyrrolo[2,3-b]pyridin-3-yl)-N-(2-methoxypyridin-4-yl)-2-oxoacetamide] | – | – | < 0.1 µM | D (D = greater than 1000 nM)
COc1cc(NC(=O)C(=O)c2c(C)n(Cc3ccc(Cl)cc3)c3ncc(C)cc23)ccn1 [Compound 76, 2-(1-(4-chlorobenzyl)-2,5-dimethyl-1H-pyrrolo[2,3-b]pyridin-3-yl)-N-(2-methoxypyridin-4-yl)-2-oxoacetamide] | – | – | < 0.1 µM | C (C = between 100 nM and 1000 nM)
